Experiments:
[1] = target: Vascular endothelial growth factor receptor 2 (Mus musculus, UniProt P35918); assay: Inhibitory activity against vascular endothelial growth factor receptor 2 (FLK1)
[2] = target: Human immunodeficiency virus type 1 protease (Human immunodeficiency virus 1, UniProt Q72874); assay: Inhibitory activity against HIV-1 protease.

Chain of Vascular endothelial growth factor receptor 2 (P35918 whole entry): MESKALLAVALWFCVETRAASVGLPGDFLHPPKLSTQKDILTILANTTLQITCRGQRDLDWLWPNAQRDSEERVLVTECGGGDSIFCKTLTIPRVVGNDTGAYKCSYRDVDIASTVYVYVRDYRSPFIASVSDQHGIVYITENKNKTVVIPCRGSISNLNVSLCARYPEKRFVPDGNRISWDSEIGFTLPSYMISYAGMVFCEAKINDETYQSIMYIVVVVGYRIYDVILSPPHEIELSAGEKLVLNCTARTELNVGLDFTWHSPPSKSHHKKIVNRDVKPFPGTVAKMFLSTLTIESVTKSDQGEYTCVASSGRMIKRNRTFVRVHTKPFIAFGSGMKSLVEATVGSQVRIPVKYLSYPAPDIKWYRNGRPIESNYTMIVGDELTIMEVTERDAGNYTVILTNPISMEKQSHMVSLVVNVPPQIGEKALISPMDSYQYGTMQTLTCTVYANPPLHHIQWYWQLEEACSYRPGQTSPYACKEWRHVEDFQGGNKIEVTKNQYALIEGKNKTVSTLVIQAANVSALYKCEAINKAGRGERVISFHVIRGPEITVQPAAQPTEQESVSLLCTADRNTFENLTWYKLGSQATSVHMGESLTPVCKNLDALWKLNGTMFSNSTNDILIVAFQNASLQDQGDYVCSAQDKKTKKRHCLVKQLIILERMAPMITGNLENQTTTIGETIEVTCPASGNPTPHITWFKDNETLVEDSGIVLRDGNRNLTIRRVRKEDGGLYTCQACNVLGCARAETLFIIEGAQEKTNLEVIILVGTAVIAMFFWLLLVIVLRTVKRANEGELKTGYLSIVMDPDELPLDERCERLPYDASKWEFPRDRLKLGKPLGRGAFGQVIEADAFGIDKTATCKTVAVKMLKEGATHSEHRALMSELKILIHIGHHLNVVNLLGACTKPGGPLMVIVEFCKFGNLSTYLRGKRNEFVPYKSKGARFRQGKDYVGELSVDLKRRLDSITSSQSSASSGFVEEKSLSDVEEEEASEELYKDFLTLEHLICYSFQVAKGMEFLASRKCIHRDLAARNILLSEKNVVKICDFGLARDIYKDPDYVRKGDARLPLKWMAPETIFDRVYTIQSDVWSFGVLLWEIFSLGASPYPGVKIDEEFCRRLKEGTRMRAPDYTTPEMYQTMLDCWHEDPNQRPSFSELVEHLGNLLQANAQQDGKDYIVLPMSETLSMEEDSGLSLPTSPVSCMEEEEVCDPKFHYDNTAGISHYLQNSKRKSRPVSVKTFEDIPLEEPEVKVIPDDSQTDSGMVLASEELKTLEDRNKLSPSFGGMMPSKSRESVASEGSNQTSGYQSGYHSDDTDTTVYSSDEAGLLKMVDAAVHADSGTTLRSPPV

Question: For `O=C1Nc2ccccc2/C1=C\c1cc(Br)cs1`, which IC50 [1] is on record?
Answer: The IC50 was 1000 µM.

Question: How did the IC50 [1] turn out when `CCc1ccc(/C=C2/C(=O)Nc3ccccc32)s1` was run?
Answer: The IC50 was 3.39 µM.

Question: With `Cn1cc(Cl)c(/C=C2/C(=O)Nc3ccccc32)n1` as the compound, how does the IC50 [1] read?
Answer: The IC50 was 1000 µM.

Question: Which IC50 [1] does the source give for `CC(C)c1cc(/C=C2/C(=O)Nc3ccccc32)cc(C(C)C)c1O` here?
Answer: Its IC50 is 8.51 µM.

Question: Which IC50 [1] does the source give for `O=C1Nc2ccccc2/C1=C\c1ccc(N2CCCC2)cc1` here?
Answer: Its IC50 is 3.02 µM.

Question: For `CCOC(=O)c1c(C)[nH]c(/C=C2/C(=O)Nc3ccccc32)c1C`, which IC50 [1] is on record?
Answer: The IC50 was 0.0708 µM.

Question: How did the IC50 [1] turn out when `COc1ccc(/C=C2/C(=O)Nc3ccccc32)cc1C(C)(C)C` was run?
Answer: The IC50 was 1000 µM.

Question: For `CC(C)(C)OC(=O)N[C@@H](Cc1ccccc1)[C@@H](O)C[C@@H](Cc1ccccc1)C(=O)N[C@@H]1c2ccccc2OC[C@H]1O`, which IC50 [2] is on record?
Answer: Its IC50 is 0.00018 µM.

Question: With `O=C1Nc2ccccc2/C1=C\c1ccc(O)cc1` as the compound, how does the IC50 [1] read?
Answer: The IC50 was 2.69 µM.

Question: How did the IC50 [2] turn out when `CC(C)(C)OC(=O)N[C@@H](Cc1ccccc1)[C@@H](O)C[C@@H](Cc1ccccc1)C(=O)N[C@@H]1c2ccccc2[C@@H](O)[C@H]1O` was run?
Answer: The IC50 was 0.0001 µM.

Question: With `CN(C)c1ccc(/C=C2/C(=O)Nc3cc(F)ccc32)cc1` as the compound, how does the IC50 [1] read?
Answer: The IC50 was 4.57 µM.

Question: Which IC50 [2] does the source give for `Cc1ccc(C[C@H](C[C@H](O)[C@H](Cc2ccccc2)NC(=O)OC(C)(C)C)C(=O)N[C@@H]2c3ccccc3C[C@H]2O)cc1` here?
Answer: Its IC50 is 0.00029 µM.

Question: How did the IC50 [1] turn out when `Cc1cc(C)c(/C=C2/C(=O)Nc3cc(F)ccc32)[nH]1` was run?
Answer: Its IC50 is 0.708 µM.

Question: For `Cc1c[nH]c(/C=C2/C(=O)Nc3ccccc32)c1C`, which IC50 [1] is on record?
Answer: The IC50 was 2.69 µM.

Question: Which IC50 [2] does the source give for `CC(C)(C)OC(=O)N[C@@H](Cc1ccccc1)[C@@H](O)C[C@@H](CSc1ccccc1)C(=O)N[C@@H]1c2ccccc2C[C@H]1O` here?
Answer: The IC50 was 0.00025 µM.

Question: With `CC(C)(C)OC(=O)N[C@@H](Cc1ccccc1)[C@@H](O)C[C@@H](Cc1ccccc1)C(=O)N[C@H]1CCc2ccccc21` as the compound, how does the IC50 [2] read?
Answer: Its IC50 is 0.0343 µM.

Question: How did the IC50 [2] turn out when `CC(C)(C)OC(=O)N[C@@H](Cc1ccccc1)[C@@H](O)C[C@@H](Cc1ccc(C(F)(F)F)cc1)C(=O)N[C@@H]1c2ccccc2C[C@H]1O` was run?
Answer: Its IC50 is 0.00026 µM.

Question: Which IC50 [1] does the source give for `CN(C)c1ccc(/C=C2/C(=O)Nc3ccccc32)cc1` here?
Answer: Its IC50 is 0.794 µM.

Question: Which IC50 [1] does the source give for `O=C1Nc2ccccc2/C1=C\c1ccco1` here?
Answer: Its IC50 is 1000 µM.

Question: `C/C(=C1\C(=O)Nc2ccccc21)c1ccc(N2CCCCC2)cc1` was tested. Which IC50 [1] did it give?
Answer: The IC50 was 1000 µM.

Question: Which IC50 [1] does the source give for `O=CN1CCN(c2ccc(/C=C3\C(=O)Nc4ccccc43)cc2)CC1` here?
Answer: Its IC50 is 5.13 µM.

Question: `CC(C)(C)OC(=O)N[C@@H](Cc1ccccc1)[C@@H](O)C[C@@H](Cc1ccccc1)C(=O)N[C@@H]1c2ccccc2CC[C@H]1O` was tested. Which IC50 [2] did it give?
Answer: The IC50 was 0.0007 µM.

Question: For `CCc1c(C)[nH]c(/C=C2/C(=O)Nc3ccccc32)c1C`, which IC50 [1] is on record?
Answer: The IC50 was 1000 µM.

Question: With `O=C1Nc2ccccc2/C1=C\c1ccc(Br)cc1` as the compound, how does the IC50 [1] read?
Answer: Its IC50 is 1000 µM.

Question: Which IC50 [2] does the source give for `CC(C)(C)OC(=O)N[C@@H](Cc1ccccc1)[C@@H](O)C[C@@H](Cc1ccc(N)cc1)C(=O)N[C@@H]1c2ccccc2C[C@H]1O` here?
Answer: The IC50 was 0.00031 µM.

Question: Which IC50 [2] does the source give for `CC(C)(C)OC(=O)N[C@@H](Cc1ccccc1)[C@@H](O)C[C@@H](Cc1ccccc1)C(=O)N[C@@H]1c2ccccc2C[C@H]1O` here?
Answer: Its IC50 is 0.00025 µM.

Question: `CC(C)(C)OC(=O)N[C@@H](Cc1ccccc1)[C@@H](O)C[C@@H](CC(=O)c1ccccc1)C(=O)N[C@@H]1c2ccccc2C[C@H]1O` was tested. Which IC50 [2] did it give?
Answer: The IC50 was 0.00542 µM.

Question: For `CC(C)(C)OC(=O)N[C@@H](Cc1ccccc1)[C@@H](O)C[C@@H](Cc1ccc(O)cc1)C(=O)N[C@@H]1c2ccccc2C[C@H]1O`, which IC50 [2] is on record?
Answer: The IC50 was 0.00016 µM.

Question: How did the IC50 [1] turn out when `COc1ccc(/C=C2/C(=O)Nc3ccccc32)cc1` was run?
Answer: The IC50 was 7.59 µM.

Question: How did the IC50 [2] turn out when `CC(C)(C)OC(=O)N[C@@H](Cc1ccccc1)[C@@H](O)CCC(=O)N[C@@H]1c2ccccc2C[C@H]1O` was run?
Answer: Its IC50 is 2.94 µM.

Question: Which IC50 [2] does the source give for `CC(C)(C)OC(=O)N[C@@H](Cc1ccccc1)[C@@H](O)C[C@@H](Cc1ccc(C(C)(C)C)cc1)C(=O)N[C@@H]1c2ccccc2C[C@H]1O` here?
Answer: Its IC50 is 0.00017 µM.

Question: For `CN1C(=O)/C(=C/c2ccc(Br)cc2)c2ccccc21`, which IC50 [1] is on record?
Answer: Its IC50 is 1000 µM.

Question: How did the IC50 [2] turn out when `CC(C)(C)OC(=O)N[C@@H](Cc1ccccc1)[C@@H](O)C[C@@](C)(Cc1ccccc1)C(=O)N[C@@H]1c2ccccc2C[C@H]1O` was run?
Answer: Its IC50 is 0.00771 µM.

Question: With `Cc1c[nH]c(/C=C2/C(=O)Nc3ccccc32)c1CCC(O)O` as the compound, how does the IC50 [1] read?
Answer: The IC50 was 0.398 µM.

Question: Which IC50 [1] does the source give for `CCc1c(/C=C2/C(=O)Nc3ccccc32)[nH]c(C)c1C` here?
Answer: The IC50 was 0.141 µM.

Question: Which IC50 [1] does the source give for `Cn1cccc1/C=C1/C(=O)Nc2ccccc21` here?
Answer: The IC50 was 20.4 µM.

Question: Which IC50 [2] does the source give for `C=CC[C@H](C[C@H](O)[C@H](Cc1ccccc1)NC(=O)OC(C)(C)C)C(=O)N[C@@H]1c2ccccc2C[C@H]1O` here?
Answer: The IC50 was 0.0275 µM.

Question: `COC(=O)[C@@H]1Cc2ccccc2[C@H]1NC(=O)[C@H](Cc1ccccc1)C[C@H](O)[C@H](Cc1ccccc1)NC(=O)OC(C)(C)C` was tested. Which IC50 [2] did it give?
Answer: The IC50 was 0.0662 µM.

Question: `O=C1Nc2ccccc2/C1=C\c1n[nH]cc1Cl` was tested. Which IC50 [1] did it give?
Answer: The IC50 was 7.41 µM.

Question: How did the IC50 [1] turn out when `O=C1Nc2ccccc2/C1=C\c1ccc(N2CCOCC2)cc1` was run?
Answer: Its IC50 is 2.51 µM.

Question: With `CC(C)(C)c1cc(/C=C2/C(=O)Nc3ccccc32)cc(Br)c1O` as the compound, how does the IC50 [1] read?
Answer: Its IC50 is 46.8 µM.

Question: With `CC(C)(C)OC(=O)N[C@@H](Cc1ccccc1)[C@@H](O)C[C@@H](Cc1ccncc1)C(=O)N[C@@H]1c2ccccc2C[C@H]1O` as the compound, how does the IC50 [2] read?
Answer: The IC50 was 0.00053 µM.

Question: With `CC(C)(C)OC(=O)N[C@@H](Cc1ccccc1)[C@@H](O)C[C@@H](Cc1c(F)c(F)c(F)c(F)c1F)C(=O)N[C@@H]1c2ccccc2C[C@H]1O` as the compound, how does the IC50 [2] read?
Answer: Its IC50 is 0.0006 µM.

Question: `CC(C)(C)OC(=O)N[C@@H](Cc1ccccc1)[C@@H](O)C[C@@H](Cc1ccc([N+](=O)[O-])cc1)C(=O)N[C@@H]1c2ccccc2C[C@H]1O` was tested. Which IC50 [2] did it give?
Answer: Its IC50 is 0.00027 µM.

Question: Which IC50 [1] does the source give for `O=C1Nc2cc(F)ccc2/C1=C\c1ccc[nH]1` here?
Answer: Its IC50 is 0.708 µM.

Question: `CN(C)c1ccc(/C=C2/C(=O)N(C)c3ccccc32)cc1` was tested. Which IC50 [1] did it give?
Answer: Its IC50 is 22.4 µM.

Question: Which IC50 [1] does the source give for `CCOC(=O)c1c[nH]c(/C=C2/C(=O)Nc3ccccc32)c1C` here?
Answer: The IC50 was 0.182 µM.

Question: Which IC50 [1] does the source give for `CC(C)(C)c1cc(/C=C2/C(=O)Nc3ccccc32)cc(C(C)(C)C)c1O` here?
Answer: The IC50 was 8.32 µM.

Question: `O=C1Nc2ccccc2/C1=C\c1ccc(N2CCCCC2)cc1` was tested. Which IC50 [1] did it give?
Answer: Its IC50 is 4.47 µM.

Question: For `CC(C)(C)OC(=O)N[C@@H](Cc1ccccc1)[C@@H](O)C[C@@H](C/C=C/c1ccccc1)C(=O)N[C@@H]1c2ccccc2C[C@H]1O`, which IC50 [2] is on record?
Answer: Its IC50 is 0.00023 µM.

Question: `CC(C)(C)OC(=O)N[C@@H](Cc1ccccc1)[C@@H](O)C[C@@H](Cc1ccc(I)cc1)C(=O)N[C@@H]1c2ccccc2C[C@H]1O` was tested. Which IC50 [2] did it give?
Answer: The IC50 was 0.000719 µM.

Question: For `CC(C)(C)OC(=O)N[C@@H](Cc1ccccc1)[C@@H](O)C[C@@H](Cc1ccccc1)C(=O)N[C@@H]1C=CC[C@H]1O`, which IC50 [2] is on record?
Answer: Its IC50 is 0.00953 µM.

Question: Which IC50 [2] does the source give for `CC(C)(C)OC(=O)N[C@@H](Cc1ccccc1)[C@@H](O)C[C@@H](CCCc1ccccc1)C(=O)N[C@@H]1c2ccccc2[C@@H](O)[C@H]1O` here?
Answer: The IC50 was 0.00019 µM.

Question: How did the IC50 [2] turn out when `CC(C)(C)OC(=O)N[C@@H](Cc1ccccc1)[C@@H](O)C[C@@H](Cc1ccccc1)C(=O)N[C@@H]1CCCC[C@H]1O` was run?
Answer: Its IC50 is 0.122 µM.

Question: `CSc1ccc(/C=C2/C(=O)Nc3ccccc32)s1` was tested. Which IC50 [1] did it give?
Answer: Its IC50 is 2.34 µM.

Question: With `COc1ccc(/C=C2\C(=O)Nc3ccc(Cl)cc32)cc1C(C)(C)C` as the compound, how does the IC50 [1] read?
Answer: The IC50 was 1000 µM.

Question: Which IC50 [1] does the source give for `CSc1ccc(/C=C2\C(=O)Nc3cccc(C)c32)s1` here?
Answer: Its IC50 is 1000 µM.

Question: With `COc1c(Br)cc(/C=C2\C(=O)Nc3ccc(Cl)cc32)cc1C(C)(C)C` as the compound, how does the IC50 [1] read?
Answer: Its IC50 is 1000 µM.

Question: `O=C1Nc2ccc(Br)cc2/C1=C/c1ccc(N2CCOCC2)cc1` was tested. Which IC50 [1] did it give?
Answer: Its IC50 is 50.1 µM.

Question: Which IC50 [1] does the source give for `O=C1Nc2ccc([N+](=O)[O-])cc2/C1=C/c1ccc[nH]1` here?
Answer: The IC50 was 1000 µM.

Question: `O=CN1CCN(c2ccc(/C=C3\C(=O)Nc4ccc(Br)cc43)cc2)CC1` was tested. Which IC50 [1] did it give?
Answer: The IC50 was 100 µM.

Question: How did the IC50 [2] turn out when `CC(C)(C)OC(=O)N[C@@H](Cc1ccccc1)[C@@H](O)C[C@@H](Cc1ccccc1)C(=O)N[C@H]1c2ccccc2OC[C@@H]1O` was run?
Answer: Its IC50 is 0.0406 µM.

Source: ChEMBL document CHEMBL1133609, “DoMCoSAR: a novel approach for establishing the docking mode that is consistent with the structure-activity relationship. Application to HIV-1 protease inhibitors and VEGF receptor tyrosine kinase inhibitors” (J Med Chem, 2000)
